From patent US20110124634A1, “BIOACTIVE COMPOUNDS FOR TREATMENT OF CANCER AND NEURODEGENERATIVE DISEASES” (PONIARD PHARMACEUTICALS, INC., priority 2008, published 2011)
Like-named read-outs stand apart in the source and are kept apart here.

What was measured:
Assay type in all cases: cell-based
[1] = system: HT29; test: MTS assay (cytotoxicity), growth inhibition of HT29; conditions: Homo sapiens, HT-29, 120 h
Protocol: (§1) Cells were seeded in 96-well plates at 2000 cells/well in a final culture volume of 100 ul for 24 hours before the addition of 25 ul of increasing concentrations of inhibitors that was incubated for 5 days. Viable cell number was determined using the CellTiter 96 AQueous One Solution Cell Proliferation Assay (Promega). Plates were read at 490 nm absorbance 2-4 hours after addition of the MTS reagent using a multiwell plate spectrophotometer. Background was determined by measuring the Abs 490 nm of cell culture medium and MTS in the absence of cells. The background value was subtracted from all values. Absorbance 490 nm values for each inhibitor were plotted against the log 10 inhibitor concentration, and IC50 values were calculated using a nonlinear least-square curve fitting program in Prism 5.

[2] = system: BT474; test: MTS assay (cytotoxicity), growth inhibition of BT474; conditions: Homo sapiens, BT-474, 120 h
Protocol: as §1

[3] = system: HSP90 client protein Her2 in SKBR-3 cells; test: Her-2 degradation assay (Her-2 ELISA) in SKBr-3 cells; conditions: Homo sapiens
Protocol: Most of the compounds synthesized were evaluated for their ability to induce degradation of the HSP90 client protein Her2 in SKBR-3 cells. Selected compounds were evaluated in a fluorescence polarization (FP) assay for their affinity to HSP90.
SKBr-3 cells grown in McCoy's 5a Medium supplemented with 10% fetal bovine serum (FBS) were plated into 12-well plates at 50% confluency. Increasing concentrations of inhibitors were added 24 hours later (cells are 65-70% confluent) and incubated overnight for 18 hours. The wells were washed with 2 ml of phosphate buffered saline (PBS), and 50 ul of trypsin was added to each well. After trypsinization was complete, 150 ul of FBS was added to each well. Then 200 ul of cells were transferred to 96-well plates and plates were centrifuged at 1200 rpm for 2 minutes using a tabletop centrifuge. The cells were washed once with 250 ul PBS before being lysed with 100 ul of 50 mM Tris (pH 7.4), 0.1% NP-40 lysis buffer. Protein concentrations of clarified lysates were determined using the BCA Assay (Calbiochem) according to the manufacturer's instructions. 2 ug of each lysate was analyzed in the human sp 185 Her-2 ELISA (Bender Medsystems) according to the manufacturer's instructions. ELISA plates were read at 450 nm using a multiwell plate spectrophotometer. Background was determined by measuring the Abs 450 nm of wells with no lysate added. The background value was subtracted from all values. Absorbance 450 nm values for each inhibitor were plotted against the log 10 inhibitor concentration, and IC50 values were calculated using a nonlinear least-square curve fitting program in Prism 5.

[4] = system: SKBR-3; test: MTS assay (cytotoxicity), growth inhibition of SKBR-3; conditions: Homo sapiens, SK-BR-3, 120 h
Protocol: as §1

[5] = system: MCF-7; test: MTS assay (cytotoxicity), growth inhibition of MCF-7; conditions: Homo sapiens, MCF7, 120 h
Protocol: as §1

[6] = Table 4, 5 days, means of three independent experiments, read-out: HT29 IC50 (growth inhibition)
[7] = Table 4, 5 days, means of three independent experiments, read-out: BT474 IC50 (growth inhibition)
[8] = SK-BR-3, Table 1, series I, 18 hours, means of three independent experiments
[9] = Table 4, 5 days, means of three independent experiments, read-out: SKBR-3 IC50 (growth inhibition)
[10] = Table 4, 5 days, means of three independent experiments, read-out: MCF-7 IC50 (growth inhibition)
[11] = Table 5, series III, 5 days, read-out: Growth Inhibition (IC50) HT29
[12] = Table 5, series III, 5 days, read-out: Growth Inhibition (IC50) BT474
[13] = SK-BR-3, Table 5, series III, 18 hours
[14] = Table 5, series III, 5 days, read-out: Growth Inhibition (IC50) SKBR-3
[15] = Table 5, series III, 5 days, read-out: Growth Inhibition (IC50) MCF-7

Row | SMILES | IC50 ([3]; SK-BR-3, Table 3, 18 hours, means of three independent experiments) [nM] | IC50 [3, 13] [nM] | IC50 [1, 6] [nM] | IC50 [2, 7] [nM] | IC50 [3, 8] [nM] | IC50 [4, 9] [nM] | IC50 [5, 10] [nM] | IC50 [1, 11] [nM] | IC50 [2, 12] [nM] | IC50 [4, 14] [nM] | IC50 [5, 15] [nM]
1 | COc1c(C)cnc(CN2CC(=O)N(CCN3CCCC3)c3c(Cl)nc(N)nc32)c1C [Example I-7] | – | – | 1080 | 520 | 510 | 300 | 1320 | – | – | – | –
2 | COc1c(C)cnc(CN2CC(=O)N(CCCN3CCOCC3)c3c(Cl)nc(N)nc32)c1C [Example I-10] | – | – | 2950 | 1810 | 1550 | 1110 | 2590 | – | – | – | –
3 | COc1cc(CN2CC(=O)N(CC(C)C)c3c(Cl)nc(N)nc32)c(Cl)c(OC)c1OC [Example I-36] | > 5000 | – | – | – | – | – | – | – | – | – | –
4 | COc1c(C)cnc(CN2C(=O)/C(=C\c3ccc[nH]3)c3c(Cl)nc(N)nc32)c1C [III-1, 2-Amino-4-chloro-7-(4-methoxy-3,5-dimethyl-pyridin-2-ylmethyl)-5-[1-(1H-pyrrol-2-yl)-meth-(Z)-ylidene]-5,7-dihydro-pyrrolo[2,3-d]pyrimidin-6-one] | – | 90 | – | – | – | – | – | 30 | 30 | 90 | 90
5 | COc1c(C)cnc(CN2C(=O)/C(=C\c3[nH]c(C)cc3C)c3c(Cl)nc(N)nc32)c1C [III-2, 2-Amino-4-chloro-5-[1-(3,5-dimethyl-1H-pyrrol-2-yl)-meth-(Z)-ylidene]-7-(4-methoxy-3,5-dimethyl-pyridin-2-ylmethyl)-5,7-dihydro-pyrrolo[2,3-d]pyrimidin-6-one] | – | 1670 | – | – | – | – | – | 1210 | 1020 | 960 | 3650
6 | CCN(CC)CCCNC(=O)c1c[nH]c(/C=C2\C(=O)N(Cc3ncc(C)c(OC)c3C)c3nc(N)nc(Cl)c32)c1 [III-29, (Z)-5-((2-Amino-4-chloro-7-((4-methoxy-3,5-dimethylpyridin-2-yl)methyl)-6-oxo-6,7-dihydro-5H-pyrrolo[2,3-d]pyrimidin-5-ylidene)methyl)-N-(3-(diethylamino)propyl)-1H-pyrrole-3-carboxamide] | – | 70 | – | – | – | – | – | – | 30 | 20 | 410
7 | COc1c(C)cnc(CN2C(=O)/C(=C\c3cc(C(=O)NCCN4CCC(=O)CC4)c[nH]3)c3c(Cl)nc(N)nc32)c1C [III-36, (Z)-5-((2-Amino-4-chloro-7-((4-methoxy-3,5-dimethylpyridin-2-yl)methyl)-6-oxo-6,7-dihydro-5H-pyrrolo[2,3-d]pyrimidin-5-ylidene)methyl)-N-(2-(4-oxopiperidin-1-yl)ethyl)-1H-pyrrole-3-carboxamide] | – | 8 | – | – | – | – | – | – | 3 | 0.9 | 410
8 | CCN(CC)CCNC(=O)c1c[nH]c(/C=C2\C(=O)N(Cc3nc(C)c(C)s3)c3nc(N)nc(Cl)c32)c1 [III-69, (Z)-5-((2-Amino-4-chloro-7-((4,5-dimethylthiazol-2-yl)methyl)-6-oxo-6,7-dihydro-5H-pyrrolo[2,3-d]pyrimidin-5-ylidene)methyl)-N-(2-(diethylamino)ethyl)-1H-pyrrole-3-carboxamide] | – | 10 | – | – | – | – | – | – | 60 | 10 | 770
9 | Cc1nc(CN2C(=O)/C(=C\c3cc(C(=O)NCCN4CCOCC4)c[nH]3)c3c(Cl)nc(N)nc32)sc1C [III-70] | – | 40 | – | – | – | – | – | – | 80 | 20 | 320
10 | COc1c(C)cnc(CN2C(=O)/C(=C\c3nc(NC(=O)C(C)C)c[nH]3)c3c(Cl)nc(N)nc32)c1C [III-71, (Z)-N-(2-((2-Amino-4-chloro-7-((4-methoxy-3,5-dimethylpyridin-2-yl)methyl)-6-oxo-6,7-dihydro-5H-pyrrolo[2,3-d]pyrimidin-5-ylidene)methyl)-1H-imidazol-4-yl)isobutyramide] | – | 50 | – | – | – | – | – | – | 80 | 30 | 370
11 | CCN(CC)CCCc1ccc(/C=C2\C(=O)N(Cc3ncc(C)c(OC)c3C)c3nc(N)nc(Cl)c32)[nH]1 [III-86] | – | 310 | – | – | – | – | – | – | 760 | 1130 | 1370
12 | COc1c(C)cnc(CN2C(=O)/C(=C\c3cc(C(=O)CN4CCOCC4)c[nH]3)c3c(Cl)nc(N)nc32)c1C [III-93, (Z)-2-Amino-4-chloro-7-((4-methoxy-3,5-dimethylpyridin-2-yl)methyl)-5-((4-(2-morpholinoacetyl)-1H-pyrrol-2-yl)methylene)-5H-pyrrolo[2,3-d]pyrimidin-6(7H)-one] | – | 20 | – | – | – | – | – | – | 60 | 10 | 130

The next lines start with results.

Row | IC50 ([3]; SK-BR-3, Table 3, 18 hours, means of three independent experiments) [nM] | IC50 [3, 13] [nM] | SMILES | IC50 [1, 6] [nM] | IC50 [2, 7] [nM] | IC50 [3, 8] [nM] | IC50 [4, 9] [nM] | IC50 [5, 10] [nM] | IC50 [1, 11] [nM] | IC50 [2, 12] [nM] | IC50 [4, 14] [nM] | IC50 [5, 15] [nM]
13 | – | 10 | CCN(CC)CC(=O)c1c[nH]c(/C=C2\C(=O)N(Cc3ncc(C)c(OC)c3C)c3nc(N)nc(Cl)c32)c1 [III-95, (Z)-2-Amino-4-chloro-5-((4-(2-(diethylamino)acetyl)-1H-pyrrol-2-yl)methylene)-7-((4-methoxy-3,5-dimethylpyridin-2-yl)methyl)-5H-pyrrolo[2,3-d]pyrimidin-6(7H)-one] | – | – | – | – | – | – | 20 | 2 | 710
14 | – | 70 | COc1c(C)cnc(CN2C(=O)/C(=C\c3[nH]c(C)c(C(=O)NCCN4CCOCC4)c3C)c3c(Cl)nc(N)nc32)c1C [III-103, (Z)-5-((2-Amino-4-chloro-7-((4-methoxy-3,5-dimethylpyridin-2-yl)methyl)-6-oxo-6,7-dihydro-5H-pyrrolo[2,3-d]pyrimidin-5-ylidene)methyl)-2,4-dimethyl-N-(2-morpholinoethyl)-1H-pyrrole-3-carboxamide] | – | – | – | – | – | – | 110 | 40 | 810
15 | – | 10 | COc1c(C)cnc(CN2C(=O)/C(=C\c3[nH]c(C)c(C(=O)NCCN4CCCC4)c3C)c3c(Cl)nc(N)nc32)c1C [III-104, (Z)-5-((2-Amino-4-chloro-7-((4-methoxy-3,5-dimethylpyridin-2-yl)methyl)-6-oxo-6,7-dihydro-5H-pyrrolo[2,3-d]pyrimidin-5-ylidene)methyl)-2,4-dimethyl-N-(2-(pyrrolidin-1-yl)ethyl)-1H-pyrrole-3-carboxamide] | – | – | – | – | – | – | 190 | 10 | 5880
16 | – | 70 | COc1c(C)cnc(CN2C(=O)/C(=C\c3[nH]c(C)c(C(=O)NCCN4CCCCC4)c3C)c3c(Cl)nc(N)nc32)c1C [III-105, (Z)-5-((2-Amino-4-chloro-7-((4-methoxy-3,5-dimethylpyridin-2-yl)methyl)-6-oxo-6,7-dihydro-5H-pyrrolo[2,3-d]pyrimidin-5-ylidene)methyl)-2,4-dimethyl-N-(2-(piperidin-1-yl)ethyl)-1H-pyrrole-3-carboxamide] | – | – | – | – | – | – | 1280 | 100 | > 1000
17 | – | 40 | COc1c(C)cnc(CN2C(=O)/C(=C\c3[nH]c(C)c(C(=O)NCCN4CCS(=O)(=O)CC4)c3C)c3c(Cl)nc(N)nc32)c1C [III-106, 5-[2-Amino-4-chloro-7-(4-methoxy-3,5-dimethyl-pyridin-2-ylmethyl)-6-oxo-6,7-dihydro-pyrrolo[2,3-d]pyrimidin-(5Z)-ylidenemethyl]-2,4-dimethyl-1H-pyrrole-3-carboxylic acid [2-(1,1-dioxo-thiomorpholin-4-yl)-ethyl]-amide] | – | – | – | – | – | – | 90 | 40 | 240
18 | – | 20 | COc1c(C)cnc(CN2C(=O)/C(=C\c3[nH]c(C)c(C(=O)NCCN4CCC(O)CC4)c3C)c3c(Cl)nc(N)nc32)c1C [III-107, (Z)-5-((2-Amino-4-chloro-7-((4-methoxy-3,5-dimethylpyridin-2-yl)methyl)-6-oxo-6,7-dihydro-5H-pyrrolo[2,3-d]pyrimidin-5-ylidene)methyl)-N-(2-(4-hydroxypiperidin-1-yl)ethyl)-2,4-dimethyl-1H-pyrrole-3-carboxamide] | – | – | – | – | – | – | 20 | 5 | 230
